Activity data for 17 compounds are collected here from ChEMBL document CHEMBL5523746, “Discovery of Novel Peptide Antagonists Targeting GPR55 for Liver Inflammation and Fibrosis” (2024).

Bridge positions count the residues as written; N and C are the ends. Peptide text beside a SMILES is read from it.

Test [1] has as its system LX-2. In words: Anti-fibrotic activity in human LX2 cells assessed as reduction in […] expression by measuring relative inhibition rate measured after 24 hrs incubation by Western blot analysis relative to control. Format: functional. Also noted: concentration or dose not given beside the values. (In general: In western blotting, separated proteins are transferred to a membrane and probed.)

For test [2], the system named is LX-2. In words: Anti-fibrotic activity in human LX2 cells assessed as reduction in COL1alpha expression by measuring relative inhibition rate measured after 24 hrs incubation by Western blot analysis relative to control. Type of test: functional. Also on record: concentration or dose not given beside the values.

For `CC(C)C[C@@H]1NC(=O)[C@H]([C@@H](C)O)NC(=O)[C@@H]2CCCN2C(=O)[C@H](CO)NC(=O)[C@H](CC(N)=O)NC(=O)[C@H](CCCCN)NC(=O)[C@H](CCCCN)NC(=O)[C@@H](N)CSSC[C@@H](C(=O)O)NC1=O` (H-CKKNSPTLC-OH; disulfide 1-9), the values for the Activity in test [1] and in test [2] were 66.4% and 57.5%, respectively.
The like results for `CC(C)C[C@@H]1NC(=O)[C@H]([C@@H](C)O)NC(=O)[C@@H]2CCCN2C(=O)[C@H](CO)NC(=O)[C@H](CC(=O)O)NC(=O)[C@H](CCCCN)NC(=O)[C@H](CCCCN)NC(=O)[C@@H](N)CSSC[C@@H](C(=O)O)NC1=O` (H-CKKDSPTLC-OH; disulfide 1-9) were, in that order, 82.4% and 64.7%.
Turning to `CC(C)C[C@@H]1NC(=O)[C@H](CCCNC(=N)N)NC(=O)[C@@H]2CCCN2C(=O)[C@H](CO)NC(=O)[C@H](CC(N)=O)NC(=O)[C@H](CCCCN)NC(=O)[C@H](CCCCN)NC(=O)[C@@H](N)CSSC[C@@H](C(=O)O)NC1=O` (H-CKKNSPRLC-OH; disulfide 1-9), the Activity in test [1] was 92.6%; in test [2], 76.7%.
The like results for `CC(C)C[C@@H]1NC(=O)[C@H]([C@@H](C)O)NC(=O)[C@@H]2CCCN2C(=O)[C@H](C)NC(=O)[C@H](CC(N)=O)NC(=O)[C@H](CCCCN)NC(=O)[C@H](CCCCN)NC(=O)[C@@H](N)CSSC[C@@H](C(=O)O)NC1=O` (H-CKKNAPTLC-OH; disulfide 1-9) were, in that order, 74.5% and 99.4%.
Consider `CC(C)C[C@@H]1NC(=O)[C@H]([C@@H](C)O)NC(=O)[C@H](C)NC(=O)[C@H](CO)NC(=O)[C@H](CC(N)=O)NC(=O)[C@H](CCCCN)NC(=O)[C@H](CCCCN)NC(=O)[C@@H](N)CSSC[C@@H](C(=O)O)NC1=O` (H-CKKNSATLC-OH; disulfide 1-9), for which the Activity was determined as 91.8% in test [1] and 140.1% in test [2].
Regarding `C[C@@H](O)[C@@H]1NC(=O)[C@@H]2CCCN2C(=O)[C@H](CO)NC(=O)[C@H](CC(N)=O)NC(=O)[C@H](CCCCN)NC(=O)[C@H](CCCCN)NC(=O)[C@@H](N)CSSC[C@@H](C(=O)O)NC(=O)[C@H](CCC(N)=O)NC1=O` (H-CKKNSPTQC-OH; disulfide 1-9), the values for the Activity in test [1] and in test [2] were 82.3% and 74.6%, respectively.
With `CC(C)C[C@@H]1NC(=O)[C@H](C)NC(=O)[C@@H]2CCCN2C(=O)[C@H](CO)NC(=O)[C@H](CC(N)=O)NC(=O)[C@H](CCCCN)NC(=O)[C@H](CCCCN)NC(=O)[C@@H](N)CSSC[C@@H](C(=O)O)NC1=O` (H-CKKNSPALC-OH; disulfide 1-9), the Activity in test [1] came out at 61.2%; in test [2], 79.7%.
In the case of `CC(C)C[C@@H]1NC(=O)[C@H](CCC(=O)O)NC(=O)[C@@H]2CCCN2C(=O)[C@H](CO)NC(=O)[C@H](CC(N)=O)NC(=O)[C@H](CCCCN)NC(=O)[C@H](CCCCN)NC(=O)[C@@H](N)CSSC[C@@H](C(=O)O)NC1=O` (H-CKKNSPELC-OH; disulfide 1-9), the Activity in test [1] was determined as 82.9%; in test [2], 59.2%.
Take `CC(C)C[C@@H]1NC(=O)[C@H]([C@@H](C)O)NC(=O)[C@@H]2CCCN2C(=O)[C@H](CO)NC(=O)[C@H](C)NC(=O)[C@H](CCCCN)NC(=O)[C@H](CCCCN)NC(=O)[C@@H](N)CSSC[C@@H](C(=O)O)NC1=O` (H-CKKASPTLC-OH; disulfide 1-9): the Activity in test [1] came out at 87.7%; in test [2], 132.9%.
The like results for `C[C@@H](O)[C@@H]1NC(=O)[C@H]([C@@H](C)O)NC(=O)[C@@H]2CCCN2C(=O)[C@H](CO)NC(=O)[C@H](CC(N)=O)NC(=O)[C@H](CCCCN)NC(=O)[C@H](CCCCN)NC(=O)[C@@H](N)CSSC[C@@H](C(=O)O)NC1=O` (H-CKKNSPTTC-OH; disulfide 1-9) were, in that order, 84.9% and 66.1%.
The like results for `CC(C)C[C@@H]1NC(=O)[C@H]([C@@H](C)O)NC(=O)[C@@H]2CCCN2C(=O)[C@H](CO)NC(=O)[C@H](CC(N)=O)NC(=O)[C@H](C)NC(=O)[C@H](CCCCN)NC(=O)[C@@H](N)CSSC[C@@H](C(=O)O)NC1=O` (H-CKANSPTLC-OH; disulfide 1-9) were, in that order, 88.9% and 139.1%.
The like results for `CC(C)C[C@@H]1NC(=O)[C@H]([C@@H](C)O)NC(=O)[C@@H]2CCCN2C(=O)[C@H]([C@@H](C)O)NC(=O)[C@H](CC(N)=O)NC(=O)[C@H](CCCCN)NC(=O)[C@H](CCCCN)NC(=O)[C@@H](N)CSSC[C@@H](C(=O)O)NC1=O` (H-CKKNTPTLC-OH; disulfide 1-9) were, in that order, 91.6% and 85.7%.
For the compound `C[C@@H]1NC(=O)[C@H]([C@@H](C)O)NC(=O)[C@@H]2CCCN2C(=O)[C@H](CO)NC(=O)[C@H](CC(N)=O)NC(=O)[C@H](CCCCN)NC(=O)[C@H](CCCCN)NC(=O)[C@@H](N)CSSC[C@@H](C(=O)O)NC1=O` (H-CKKNSPTAC-OH; disulfide 1-9), in test [2], the Activity is given as 74.1%.
As to `CC(C)C[C@@H]1NC(=O)[C@H](CO)NC(=O)[C@H](CC(N)=O)NC(=O)[C@H](CCCCN)NC(=O)[C@H](CCCCN)NC(=O)[C@@H](N)CSSC[C@@H](C(=O)O)NC(=O)[C@H](CC(C)C)NC(=O)[C@H]([C@@H](C)O)NC1=O` (H-CKKNSLTLC-OH; disulfide 1-9), the Activity in test [1] was 68.9%; in test [2] it was 66.1%.
The like results for `CC(C)C[C@@H]1NC(=O)[C@H]([C@@H](C)O)NC(=O)[C@@H]2CCCN2C(=O)[C@H](CO)NC(=O)[C@H](CC(N)=O)NC(=O)[C@H](CCCCN)NC(=O)[C@H](C)NC(=O)[C@@H](N)CSSC[C@@H](C(=O)O)NC1=O` (H-CAKNSPTLC-OH; disulfide 1-9) were, in that order, 76.4% and 90.3%.
Consider `C[C@@H](O)[C@@H]1NC(=O)[C@@H]2CCCN2C(=O)[C@H](CO)NC(=O)[C@H](CC(N)=O)NC(=O)[C@H](CCCCN)NC(=O)[C@H](CCCCN)NC(=O)[C@@H](N)CSSC[C@@H](C(=O)O)NC(=O)[C@H](Cc2c[nH]cn2)NC1=O` (H-CKKNSPTHC-OH; disulfide 1-9), for which the Activity in test [1] is reported as 71.5%; in test [2], 62.6%.
The like results for `CC(C)C[C@@H]1NC(=O)[C@H](CO)NC(=O)[C@@H]2CCCN2C(=O)[C@H](CO)NC(=O)[C@H](CC(N)=O)NC(=O)[C@H](CCCCN)NC(=O)[C@H](CCCCN)NC(=O)[C@@H](N)CSSC[C@@H](C(=O)O)NC1=O` (H-CKKNSPSLC-OH; disulfide 1-9) were, in that order, 93.8% and 69.4%.
